Data from ChEMBL document CHEMBL1201861, “Genomics of Drug Sensitity in Cancer screening data, Wellcome Trust Sanger Institute”.

Tests used:
Assay in all cases: cells
[1] = tested on: SW684; type: functional, cell-based, Homo sapiens; details: Homo sapiens, SW684; read-out: IC50;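 note: growth inhibition of human SW684 cells, measured by a cell viability assay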
Description: SANGER: Inhibition of human SW684 cell growth in a cell viability assay.

[2] = tested on: SH-4; type: functional, cell-based; details: Homo sapiens;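 note: growth inhibition of SH-4 cells, read out with a cell viability assay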
Description: SANGER: Inhibition of human SH-4 cell growth in a cell viability assay.

[3] = tested on: L-363; type: functional, cell-based, Homo sapiens; details: Homo sapiens, L-363
Description: SANGER: Inhibition of human L-363 cell growth in a cell viability assay.

[4] = tested on: MZ7-mel; type: functional, cell-based, Homo sapiens; details: Homo sapiens, MZ7-mel;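 note: growth inhibition of human MZ7-mel cells, measured by a cell viability assay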
Description: SANGER: Inhibition of human MZ7-mel cell growth in a cell viability assay.

[5] = tested on: KM12; type: functional, cell-based, Homo sapiens; details: Homo sapiens, KM12;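 note: KM12 cell growth inhibition, read out with a cell viability assay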
Description: SANGER: Inhibition of human KM12 cell growth in a cell viability assay.

[6] = tested on: TGBC1TKB; type: functional, cell-based, Homo sapiens; details: Homo sapiens, TGBC1TKB;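 note: growth inhibition of TGBC1TKB cells, read out by a cell viability assay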
Description: SANGER: Inhibition of human TGBC1TKB cell growth in a cell viability assay.

[7] = tested on: L-428; type: functional, cell-based, Homo sapiens; details: Homo sapiens, L-428
Description: SANGER: Inhibition of human L-428 cell growth in a cell viability assay.

[8] = tested on: HAL-01; type: functional, cell-based, Homo sapiens; details: Homo sapiens, HAL-01;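 note: growth inhibition of human HAL-01 cells, read out with a cell viability assay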
Description: SANGER: Inhibition of human HAL-01 cell growth in a cell viability assay.

[9] = tested on: SCC-15; type: functional, cell-based, Homo sapiens; details: Homo sapiens, SCC-15;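 note: growth inhibition of SCC-15 cells, read out with a cell viability assay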
Description: SANGER: Inhibition of human SCC-15 cell growth in a cell viability assay.

[10] = tested on: TK-10; type: functional, cell-based, Homo sapiens; details: Homo sapiens, TK-10;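 note: growth inhibition of TK-10 cells, read out in a cell viability assay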
Description: SANGER: Inhibition of human TK10 cell growth in a cell viability assay.

[11] = tested on: C2BBe1; type: functional, cell-based, Homo sapiens; details: Homo sapiens, C2BBe1;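 note: growth inhibition of C2BBe1 cells, read out through a viability assay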
Description: SANGER: Inhibition of human C2BBe1 cell growth in a cell viability assay.

[12] = tested on: D-263MG; type: functional, cell-based, Homo sapiens; details: Homo sapiens, D-263MG
Description: SANGER: Inhibition of human D-263MG cell growth in a cell viability assay.

[13] = tested on: A704; type: functional, cell-based; details: Homo sapiens;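 note: growth inhibition of human A704 cells, read out with a cell viability assay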
Description: SANGER: Inhibition of human A704 cell growth in a cell viability assay.

[14] = tested on: no-10; type: functional, cell-based, Homo sapiens; details: Homo sapiens;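 note: growth inhibition of no-10 cells, read out with a cell viability assay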
Description: SANGER: Inhibition of human no-10 cell growth in a cell viability assay.

[15] = tested on: MZ2-MEL; type: functional, cell-based, Homo sapiens; details: Homo sapiens, MZ2-MEL;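 note: growth inhibition of MZ2-MEL cells read out with a cell viability assay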
Description: SANGER: Inhibition of human MZ2-MEL cell growth in a cell viability assay.

[16] = tested on: OVCAR-4; type: functional, cell-based, Homo sapiens; details: Homo sapiens, OVCAR-4;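 note: growth inhibition of human OVCAR-4 cells, measured with a cell viability assay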
Description: SANGER: Inhibition of human OVCAR-4 cell growth in a cell viability assay.

[17] = tested on: NCI-H82; type: functional, cell-based, Homo sapiens; details: Homo sapiens, NCI-H82;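 note: growth inhibition of NCI-H82 cells, measured with a cell viability readout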
Description: SANGER: Inhibition of human NCI-H82 cell growth in a cell viability assay.

[18] = tested on: EW-1; type: functional, cell-based, Homo sapiens; details: Homo sapiens, EW-1;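 note: growth inhibition of the human EW-1 cell line, read out by a cell viability assay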
Description: SANGER: Inhibition of human EW-1 cell growth in a cell viability assay.

[19] = tested on: KS-1; type: functional, cell-based; details: Homo sapiens;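 note: growth inhibition of KS-1 cells, read out with a cell viability assay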
Description: SANGER: Inhibition of human KS-1 cell growth in a cell viability assay.

[20] = tested on: SK-NEP-1; type: functional, cell-based, Homo sapiens; details: Homo sapiens, SK-NEP-1;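 note: growth inhibition of human SK-NEP-1 cells, read out by a cell viability assay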
Description: SANGER: Inhibition of human SK-NEP-1 cell growth in a cell viability assay.

[21] = tested on: C8166; type: functional, cell-based, Homo sapiens; details: Homo sapiens, C8166;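 note: growth inhibition of human C8166 cells measured by a cell viability assay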
Description: SANGER: Inhibition of human C8166 cell growth in a cell viability assay.

[22] = tested on: GCIY; type: functional, cell-based, Homo sapiens; details: Homo sapiens, GCIY;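 note: growth inhibition of the human GCIY cell line, read out by a cell viability assay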
Description: SANGER: Inhibition of human GCIY cell growth in a cell viability assay.

[23] = tested on: ETK-1; type: functional, cell-based, Homo sapiens; details: Homo sapiens, ETK-1;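 note: growth inhibition of human ETK-1 cells, read out with a cell viability assay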
Description: SANGER: Inhibition of human ETK-1 cell growth in a cell viability assay.

[24] = tested on: IST-MES1; type: functional, cell-based, Homo sapiens; details: Homo sapiens, IST-MES1;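 note: growth inhibition of IST-MES1 cells, measured with a cell viability assay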
Description: SANGER: Inhibition of human IST-MES1 cell growth in a cell viability assay.

[25] = tested on: Calu-6; type: functional, cell-based, Homo sapiens; details: Homo sapiens, Calu-6;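 note: growth of human Calu-6 cells, read out by a cell viability assay, IC50 marking inhibition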
Description: SANGER: Inhibition of human Calu-6 cell growth in a cell viability assay.

[26] = tested on: QIMR-WIL; type: functional, cell-based, Homo sapiens; details: Homo sapiens, QIMR-WIL;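 note: growth inhibition of QIMR-WIL cells, read out with a cell viability assay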
Description: SANGER: Inhibition of human QIMR-WIL cell growth in a cell viability assay.

[27] = tested on: KALS-1; type: functional, cell-based, Homo sapiens; details: Homo sapiens, KALS-1; read-out: IC50;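 note: growth inhibition of KALS-1 cells, determined with a cell viability assay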
Description: SANGER: Inhibition of human KALS-1 cell growth in a cell viability assay.

[28] = tested on: LS-513; type: functional, cell-based, Homo sapiens; details: Homo sapiens, LS-513
Description: SANGER: Inhibition of human LS-513 cell growth in a cell viability assay.

[29] = tested on: A101D; type: functional, cell-based, Homo sapiens; details: Homo sapiens, A101D;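 note: growth inhibition of the cell line, measured with a viability assay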
Description: SANGER: Inhibition of human A101D cell growth in a cell viability assay.

[30] = tested on: LB831-BLC; type: functional, cell-based, Homo sapiens; details: Homo sapiens, LB831-BLC;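 note: growth inhibition of LB831-BLC cells, read out with a cell viability assay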
Description: SANGER: Inhibition of human LB831-BLC cell growth in a cell viability assay.

[31] = tested on: Mo; type: functional, cell-based, Homo sapiens; details: Homo sapiens, Mo
Description: SANGER: Inhibition of human Mo-T cell growth in a cell viability assay.

[32] = tested on: ES8; type: functional, cell-based, Homo sapiens; details: Homo sapiens, ES8;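 note: growth inhibition of human ES8 cells, read out with a cell viability assay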
Description: SANGER: Inhibition of human ES8 cell growth in a cell viability assay.

[33] = tested on: COLO-829; type: functional, cell-based, Homo sapiens; details: Homo sapiens, COLO-829
Description: SANGER: Inhibition of human COLO-829 cell growth in a cell viability assay.

[34] = tested on: Ramos-2G6-4C10; type: functional, cell-based, Homo sapiens; details: Homo sapiens, Ramos-2G6-4C10;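 note: growth inhibition of the cell line, measured by a cell viability read-out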
Description: SANGER: Inhibition of human Ramos-2G6-4C10 cell growth in a cell viability assay.

[35] = tested on: LOX IMVI; type: functional, cell-based, Homo sapiens; details: Homo sapiens, LOX IMVI
Description: SANGER: Inhibition of human LOXIMVI cell growth in a cell viability assay.

[36] = tested on: DMS-114; type: functional, cell-based, Homo sapiens; details: Homo sapiens, DMS-114
[37] = tested on: TE-5; type: functional, cell-based, Homo sapiens; details: Homo sapiens, TE-5;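 note: inhibition of cell growth, read out by a cell viability assay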
Description: SANGER: Inhibition of human TE-5 cell growth in a cell viability assay.

[38] = tested on: ONS-76; type: functional, cell-based, Homo sapiens; details: Homo sapiens, ONS-76;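 note: growth inhibition of human ONS-76 cells, read out with a cell viability assay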
Description: SANGER: Inhibition of human ONS-76 cell growth in a cell viability assay.

[39] = tested on: BB65-RCC; type: functional, cell-based, Homo sapiens; details: Homo sapiens, BB65-RCC;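 note: growth inhibition of the cell line, measured with a cell viability assay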
Description: SANGER: Inhibition of human BB65-RCC cell growth in a cell viability assay.

[40] = tested on: IST-SL1; type: functional, cell-based, Homo sapiens; details: Homo sapiens, IST-SL1;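 note: growth inhibition of human IST-SL1 cells, read out with a cell viability assay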
Description: SANGER: Inhibition of human IST-SL1 cell growth in a cell viability assay.

[41] = tested on: RS4-11; type: functional, cell-based, Homo sapiens; details: Homo sapiens, RS4-11;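 note: growth inhibition of RS4-11 cells, read out by a cell viability assay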
Description: SANGER: Inhibition of human RS4-11 cell growth in a cell viability assay.

[42] = tested on: COLO-684; type: functional, cell-based, Homo sapiens; details: Homo sapiens, COLO-684
Description: SANGER: Inhibition of human COLO-684 cell growth in a cell viability assay.

[43] = tested on: DJM-1; type: functional, cell-based, Homo sapiens; details: Homo sapiens, DJM-1;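 note: growth inhibition of human DJM-1 cells, read out by a cell viability assay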
Description: SANGER: Inhibition of human DJM-1 cell growth in a cell viability assay.

[44] = tested on: KNS-81-FD; type: functional, cell-based, Homo sapiens; details: Homo sapiens, KNS-81-FD;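 note: growth inhibition of KNS-81-FD cells, read out with a cell viability assay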
Description: SANGER: Inhibition of human KNS-81-FD cell growth in a cell viability assay.

[45] = tested on: ES6; type: functional, cell-based; details: Homo sapiens;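 note: growth inhibition of human ES6 cells, read out with a cell viability assay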
Description: SANGER: Inhibition of human ES6 cell growth in a cell viability assay.

[46] = tested on: DEL; type: functional, cell-based, Homo sapiens; details: Homo sapiens, DEL;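 note: growth inhibition of the human DEL cell line, read out with a cell viability assay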
Description: SANGER: Inhibition of human DEL cell growth in a cell viability assay.

[47] = tested on: MEG-01; type: functional, cell-based, Homo sapiens; details: Homo sapiens, MEG-01;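 note: growth inhibition of MEG-01 cells, read out by a cell viability assay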
Description: SANGER: Inhibition of human MEG-01 cell growth in a cell viability assay.

[48] = tested on: MHH-PREB-1; type: functional, cell-based, Homo sapiens; details: Homo sapiens, MHH-PREB-1;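 note: cell viability assay measuring inhibition of proliferation of human MHH-PREB-1 cells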
Description: SANGER: Inhibition of human MHH-PREB-1 cell growth in a cell viability assay.

[49] = tested on: TE-6; type: functional, cell-based, Homo sapiens; details: Homo sapiens, TE-6;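 note: growth inhibition of TE-6 cells, read out with a cell viability assay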
Description: SANGER: Inhibition of human TE-6 cell growth in a cell viability assay.

[50] = tested on: EW-18; type: functional, cell-based, Homo sapiens; details: Homo sapiens, EW-18; read-out: IC50;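 note: growth inhibition of EW-18 cells, read out by a cell viability assay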
Description: SANGER: Inhibition of human EW-18 cell growth in a cell viability assay.

## O=C(NCCCNc1nc(Nc2cccc(NC(=O)N3CCCC3)c2)ncc1I)c1cccs1 [BX-795]
[1]
  IC50: > 5 µM
[2]
  IC50: > 5 µM
[3]
  IC50: 1.18 µM
[4]
  IC50: > 5 µM
[5]
  IC50: 3.3 µM
[6]
  IC50: > 5 µM
[7]
  IC50: > 5 µM
[8]
  IC50: > 5 µM
[9]
  IC50: > 5 µM
[10]
  IC50: > 5 µM
[11]
  IC50: > 5 µM
[12]
  IC50: 2.38 µM
[13]
  IC50: > 5 µM
[14]
  IC50: > 5 µM
[15]
  IC50: > 5 µM
[16]
  IC50: > 5 µM
[17]
  IC50: > 5 µM
[18]
  IC50: > 5 µM
[19]
  IC50: 1.83 µM
[20]
  IC50: 1.65 µM
[21]
  IC50: > 5 µM
[22]
  IC50: > 5 µM
[23]
  IC50: 4.52 µM
[24]
  IC50: > 5 µM
[25]
  IC50: > 5 µM
[26]
  IC50: 2.29 µM
[27]
  IC50: 3.31 µM
[28]
  IC50: > 5 µM
[29]
  IC50: 3.64 µM
[30]
  IC50: > 5 µM
[31]
  IC50: > 5 µM
[32]
  IC50: 0.843 µM
[33]
  IC50: > 5 µM
[34]
  IC50: 2.24 µM
[35]
  IC50: 1.51 µM
[36]
  IC50: > 5 µM
[37]
  IC50: > 5 µM
[38]
  IC50: 4.08 µM
[39]
  IC50: > 5 µM
[40]
  IC50: 2.32 µM
[41]
  IC50: 0.726 µM
[42]
  IC50: > 5 µM
[43]
  IC50: > 5 µM
[44]
  IC50: > 5 µM
[45]
  IC50: > 5 µM
[46]
  IC50: 2.76 µM
[47]
  IC50: > 5 µM
[48]
  IC50: 2.81 µM
[49]
  IC50: > 5 µM

## NC1(c2ccc(-c3nc4ccn5c(=O)[nH]nc5c4cc3-c3ccccc3)cc2)CCC1 [MK-2206]
[1]
  IC50: > 4 µM
[2]
  IC50: > 4 µM
[3]
  IC50: 0.834 µM
[4]
  IC50: > 4 µM
[5]
  IC50: > 4 µM
[6]
  IC50: > 4 µM
[7]
  IC50: > 4 µM
[8]
  IC50: 0.621 µM
[9]
  IC50: > 4 µM
[10]
  IC50: > 4 µM
[11]
  IC50: > 4 µM
[12]
  IC50: > 4 µM
[13]
  IC50: > 4 µM
[14]
  IC50: > 4 µM
[15]
  IC50: > 4 µM
[16]
  IC50: > 4 µM
[17]
  IC50: > 4 µM
[18]
  IC50: > 4 µM
[19]
  IC50: 2.38 µM
[20]
  IC50: 1.14 µM
[21]
  IC50: > 4 µM
[22]
  IC50: > 4 µM
[23]
  IC50: > 4 µM
[24]
  IC50: > 4 µM
[25]
  IC50: > 4 µM
[26]
  IC50: 1.49 µM
[28]
  IC50: 2.33 µM
[29]
  IC50: > 4 µM
[30]
  IC50: > 4 µM
[31]
  IC50: > 4 µM
[32]
  IC50: 2.49 µM
[34]
  IC50: 1.34 µM
[35]
  IC50: > 4 µM
[36]
  IC50: 3.62 µM
[37]
  IC50: > 4 µM
[38]
  IC50: > 4 µM
[39]
  IC50: > 4 µM
[40]
  IC50: > 4 µM
[41]
  IC50: 0.346 µM
[42]
  IC50: 1.24 µM
[43]
  IC50: > 4 µM
[44]
  IC50: > 4 µM
[45]
  IC50: > 4 µM
[46]
  IC50: > 4 µM
[47]
  IC50: > 4 µM
[48]
  IC50: 3.72 µM
[50]
  IC50: 2.42 µM
[49]
  IC50: > 4 µM
